Assay results taken from paper PMC9866367 (Journal of medicinal chemistry, 2022).
Values belong to the compound of their own block, whether it stands above or below them.

Key:
[1] = In vivo pharmacokinetic analysis in mice; design: species or system male CD-1 mice
Cytotoxicity = type: cell-based
GSH = type: in vitro ADME; conditions: 5 μM compound, 5 mM GSH, up to 2 h
panel of 322 kinases = experiment: Kinase panel; type: biochemical; conditions: Table S2
[2] = test system: 46 other relevant drug targets such as GPCRs, ion channels, and nuclear receptors; experiment: Eurofins safety panel; conditions: Table S3
[3] = 50 mg/kg IP, male mice, 1 h post-dosing; cited from earlier work
[4] = target: T1, recombinant purified His-tagged sACt protein (Homo sapiens, UniProt Q96PN6); experiment: Binding kinetics via surface plasmon resonance; conditions: read-out: SPR Residence Time
T1 sequence (Q96PN6 1-469 limits assumed): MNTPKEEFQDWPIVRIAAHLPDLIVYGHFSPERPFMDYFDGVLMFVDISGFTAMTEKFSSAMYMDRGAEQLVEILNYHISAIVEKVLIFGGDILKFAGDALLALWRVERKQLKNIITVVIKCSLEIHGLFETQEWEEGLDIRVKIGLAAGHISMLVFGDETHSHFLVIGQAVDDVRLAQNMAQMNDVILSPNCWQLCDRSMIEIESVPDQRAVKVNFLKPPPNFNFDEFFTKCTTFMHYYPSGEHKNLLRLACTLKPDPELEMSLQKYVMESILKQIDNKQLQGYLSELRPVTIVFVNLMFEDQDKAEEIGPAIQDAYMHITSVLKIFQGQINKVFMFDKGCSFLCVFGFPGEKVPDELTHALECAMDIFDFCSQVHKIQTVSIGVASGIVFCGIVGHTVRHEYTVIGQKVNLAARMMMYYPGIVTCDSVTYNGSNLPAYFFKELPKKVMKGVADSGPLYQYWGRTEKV

[5] = target: T2, purified human sAC protein (Homo sapiens, UniProt Q96PN6); experiment: In vitro cyclase activity assay; type: biochemical
T2 sequence (Q96PN6 1-469): T1 sequence (Q96PN6 1-469 limits assumed)

[6] = male, CD-1, mouse, plasma, iv, 2 mg/kg

unbound plasma exposure over cellular IC50 ([…]) ([1]; 50 mg/kg PO, CD-1 mice, out to 4 h): ~ 10 fold | AUC(0-t) [1, 6]: 780 ± 110 µM·h | clearance [1, 6]: 94 ± 12 mL/min/kg | AUC(0-t) ([1]; male, CD-1, mouse, plasma, po, 10 mg/kg): 410 ± 57 µM·h | AUC(0-t) ([1]; male, CD-1, mouse, plasma, po, 50 mg/kg): 5460 ± 1500 µM·h | glutathione reactivity (GSH; listed as TDI-11861): no evidence of adduct formation | glutathione reactivity (GSH; listed as TDI-11861 (33)): low propensity at 5 μM | activity against a panel of 322 kinases (panel of 322 kinases): did not show appreciable activity
Structure (SMILES): Nc1nc(Cl)cc(-c2nn(C(F)F)cc2Cc2ccccc2OCCN2CCOC[C@H]2CO)n1 [Compound 33, [(3R)-4-[2-[2-[[3-(2-Amino-6-chloro-pyrimidin-4-yl)-1-(difluoromethyl)pyrazol-4-yl]methyl]phenoxy]ethyl]morpholin-3-yl]methanol]
cytotoxicity (Cytotoxicity): >20 µM | cytotoxicity in words (Cytotoxicity; at 20 μM): no cytotoxicity | activity against 46 other drug targets in Eurofins safety panel [2]: did not show appreciable activity | systemic level [3]: 7.04 µM

residence time [4]: 8.07 min
Structure (SMILES): Nc1nc(Cl)cc(-c2nn(C(F)F)cc2Cc2ccccc2OCC(=O)N2CCOCC2)n1 [Compound 24]

biochemical activity in words [5]: almost inactive
Structure (SMILES): CN(C)C(=O)c1ccccc1Cc1cn(C)nc1-c1cc(Cl)nc(N)n1 [Compound 14]
